Experiments:
[1] = test system: HT29 human colorectal carcinoma cell line; test: Cytotoxicity (cell growth inhibition) in vitro, 72 h exposure, HT29; format: cell-based; conditions: HT-29, 72 hour-incubation, FA 20 μmol/L and/or PLP 160 μmol/L where present, read-out: IC50 in μmol/L of FUra (95% CI)
Protocol: (§1) The human colorectal carcinoma cell lines HT29, and HCT116 and the murine L1210 lymphocytic leukemia were thawed from mycoplasma-free frozen stocks and were controlled for contamination. Cells were grown in customized DMEM cell culture medium without any B6-vitamer (Gibco; Life Technologies) supplemented with 10% FBS and antibiotics (streptomycin, 50 μg/ml, and penicillin, 50 U/ml) at 37° C. in an atmosphere containing 5% CO2.
(§2) Cancer cells were exposed in 12 well-cell plates to FUra in various concentrations under four conditions; either as a single agent [FUra]; in combination with [6R,S]-folinic acid (20 μmon) [FUra-FA]; in combination with PLP (160 μmon; Sigma-Aldrich) [FUra-PLP]; and with both agents [6R,S]-folinic acid (20 μmon), and PLP (160 μmon) together [FUra-AF-PLP]. Cells were harvested 72 hours from start of the exposure. Cell viability was measured with the Trypan Blue dye exclusion test in Malassez chambers or by flow cytometry. For the latter method, living cells defined by light double scatter were counted in a BD Accuri C6 flow cytometer (BD Biosciences). Experiments were in duplicate.
(§3) Growth inhibition data obtained with FUra as a single agent [FUra], FUra with folinic acid [FUra-FA], FUra with PLP [FUra-PLP], and FUra with both folinic acid and PLP combined [FUra-FA-PLP] were studied according to the Median Effect principle for concentration-effect analysis. […]

[2] = test system: HCT116 human colorectal carcinoma cell line; test: Cytotoxicity (cell growth inhibition) in vitro, 72 h exposure, HCT116; format: cell-based; conditions: HCT-116, 72 hour-incubation, FA 20 μmol/L and/or PLP 160 μmol/L where present, read-out: IC50 in μmol/L of FUra (95% CI)
Protocol: as §1, §2, §3

[3] = test system: L1210 murine lymphocytic leukemia; test: Cytotoxicity (cell growth inhibition) in vitro, 72 h exposure, L1210; format: cell-based; conditions: Mus musculus, 72 hour-incubation, FA 20 μmol/L and/or PLP 160 μmol/L where present, read-out: IC50 in μmol/L of FUra (95% CI)
Protocol: as §1, §2, §3

Cancer cells = test: Cytotoxic properties per se of folinic acid and PLP; format: cell-based; conditions: in concentrations used in the present experiment (folinic acid 20, PLP 160 μmon)
Protocol: as §2

[4] = female, Balb/C, mouse, in vivo; for Time by which erythrocyte PLP levels approach baseline concentrations after injection: ip
Source text: Blood was collected in heparin. Measurements of B6 vitamers were done by HPLC.28

human recombinant SHMT2 = target: T1, human recombinant SHMT2 (Homo sapiens, UniProt P34897); conditions: human recombinant SHMT2 (ref 23); read-out: Kd of SHMT for PLP; cited from earlier work
T1 sequence (P34897 30-504): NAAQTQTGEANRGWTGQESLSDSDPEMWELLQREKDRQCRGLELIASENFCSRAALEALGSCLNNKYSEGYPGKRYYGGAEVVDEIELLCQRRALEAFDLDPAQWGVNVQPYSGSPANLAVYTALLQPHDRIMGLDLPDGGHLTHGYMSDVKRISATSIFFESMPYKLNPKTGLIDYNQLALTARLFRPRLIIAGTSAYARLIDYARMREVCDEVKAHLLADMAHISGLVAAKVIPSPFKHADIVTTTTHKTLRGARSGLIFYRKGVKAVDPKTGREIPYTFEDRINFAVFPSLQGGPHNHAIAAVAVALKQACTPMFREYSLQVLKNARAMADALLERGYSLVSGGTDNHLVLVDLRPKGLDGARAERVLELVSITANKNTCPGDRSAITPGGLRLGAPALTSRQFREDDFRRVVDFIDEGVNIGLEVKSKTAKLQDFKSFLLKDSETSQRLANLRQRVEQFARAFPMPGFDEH

[5] = target: T2, Human recombinant cytoplasmic cSHMT (Homo sapiens, UniProt P34896); conditions: human recombinant cytoplasmic cSHMT (ref 22); read-out: Kd of SHMT for PLP; cited from earlier work
T2 sequence (P34896 1-483): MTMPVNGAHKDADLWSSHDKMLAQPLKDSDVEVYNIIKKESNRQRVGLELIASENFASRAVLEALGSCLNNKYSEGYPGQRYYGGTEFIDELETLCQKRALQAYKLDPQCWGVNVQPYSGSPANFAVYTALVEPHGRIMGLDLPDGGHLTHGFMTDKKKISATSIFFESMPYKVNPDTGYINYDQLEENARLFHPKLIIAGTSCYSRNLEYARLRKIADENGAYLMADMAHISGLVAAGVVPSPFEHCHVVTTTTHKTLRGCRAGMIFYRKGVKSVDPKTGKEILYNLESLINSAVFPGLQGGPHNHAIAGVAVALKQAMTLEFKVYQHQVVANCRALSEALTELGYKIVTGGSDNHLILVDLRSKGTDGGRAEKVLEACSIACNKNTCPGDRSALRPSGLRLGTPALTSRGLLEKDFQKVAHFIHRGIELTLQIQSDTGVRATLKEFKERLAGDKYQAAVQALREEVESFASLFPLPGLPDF

[6] = target: purified rabbit liver SHMT; conditions: read-out: Kd of SHMT for PLP; cited from earlier work
human recombinant SHMT1 = target: T3, human recombinant SHMT1 (Homo sapiens, UniProt P34896); conditions: human recombinant SHMT1 (ref 23); read-out: Kd of SHMT for PLP; cited from earlier work
T3 sequence (P34896 1-483): T2 sequence (P34896 1-483)

[7] = mice, one or two injections of PM at 150 or 450 mg/kg

Question: What does the source list for O=c1[nH]cc(F)c(=O)[nH]1 [FUra, 5-fluorouracil]?
Answer: IC50 [1]: 1.18 µmol/L; IC50 [2]: 1.31 µmol/L; IC50 [3]: 0.47 µmol/L

Question: With Nc1nc2c(c(=O)[nH]1)N(C=O)C(CNc1ccc(C(=O)N[C@@H](CCC(=O)O)C(=O)O)cc1)CN2 (stereo partly shown) [folinic acid, N5-formyl tetra hydro pteroylglutamate, reference compound] as the compound, how does the “Cytotoxic properties per se” value (Cancer cells) read?
Answer: The value was “neither folinic acid nor PLP carry cytotoxic properties per se”.

Question: Which “Time by which erythrocyte PLP levels approach baseline concentrations after injection” value [4] does the source give for Cc1ncc(CO)c(CO)c1O [PN, pyridoxine, reference compound] here?
Answer: Its value is no more than 12 h.

Question: For Cc1ncc(COP(=O)(O)O)c(C=O)c1O [PLP, pyridoxal 5′-phosphate], which “Cytotoxic properties per se” value (Cancer cells) is on record?
Answer: The value was “neither folinic acid nor PLP carry cytotoxic properties per se”.

Question: What about the Kd (human recombinant SHMT2) of the same compound?
Answer: The Kd was 440 nM.

Question: And the Kd [5]?
Answer: Its Kd is 850 nM.

Question: And the Kd [6]?
Answer: Its Kd is 700 nM.

Question: What about the Kd (human recombinant SHMT1) of the same compound?
Answer: Its Kd is 250 nM.

Question: What does the source list for Cc1ncc(CO)c(CN)c1O [PM, pyridoxamine]?
Answer: Peak erythrocyte PLP concentration, 450 mg/kg versus 150 mg/kg [4]: about 6 fold; Time by which erythrocyte PLP levels approach baseline concentrations after injection [4]: ≤ 12 h; Signs of acute toxicity [7]: No signs of acute toxicity
